Source: patent publication US11925672B2, “Peptide having antioxidant activity and composition containing same” (SEMPIO FOODS COMPANY, priority 2018, dated 2024)
“Also recorded” adds a separate entry of the source. Numbered stars: 1 amine (or outer) side, 2 acyl side, 3 side chain; on linkers, the order of the positions; unused ones are H or OH. Square brackets hold non-standard residues; d marks the D form. Ends that are not written are not given here. γGlu = O=C(O)[C@H](CCC(=O)[*:2])N[*:1]; Orn = NCCC[C@H](N)C(=O)O; Abu = CC[C@H](N)C(=O)O

Key:
Nrf2 mRNA = Nrf2 mRNA expression level by real-time PCR in Tert-BHP-treated HEK293 cells; assay type: cell-based; settings: Tert-BHP 300 μM, peptide 500 μM, 18 hours; for effect on expression of Nrf2 mRNA: FIGS. 5A to 5C; for Nrf2 mRNA expression compared to positive control GSH: vs GSH
Procedure: In the present invention, the antioxidant activity was compared between the 100 types of peptides, and the change in Nrf2 mRNA expression was measured through PCR in order to select the final peptide.
(§1) An HEK293 cell (kidney cell) line was seeded at a density of 6.6×10^5/well in DMEM (Dulbecco's Modified Eagle's Medium) medium on a 6-well plate and cultured at 37° C. under 5% CO2 for 24 hours. The next day, the medium was exchanged with serum and amino-acid-free media, and then the cells were further cultured for 20 hours or longer. The cells were treated with Tert-BHP (300 μM) and 500 μM 100 types of peptides, and then cultured for 18 hours.
RNA was extracted from the cells treated with 100 types of peptides in (1) using TRIzol (Thermo Fisher Scientific). A GoScript™ Reverse Transcription System (Promega, Wisconsin, USA) was used to synthesize cDNA from the RNA. The cDNA was synthesized by performing annealing using 1 μg of RNA, 0.5 μg of an oligo dt primer, 0.5 μg of a random primer and RT-PCR pre-mixture at 25° C. for 5 minutes, extension at 42° C. for 60 minutes, and inactivation at 70° C. for 15 minutes.
(§2) PCR was performed using Maxime™ PCR PreMix (i-StarTaq) (Intron Biotechnology, Korea). Real-time PCR was performed using SsoAdvanced™ Universal SYBR® Green Supermix (Bio-Rad, USA). 100 ng of cDNA, 2 μM (pmol/μl) primers, 10 μl of 2X SsoAdvanced™ Universal SYBR® Green Supermix and DW were added to the PCR plate well. Then, the temperature was cyclically adjusted to 95° C. for 3 minutes, 95° C. for 10 seconds and 58° C. for 40 seconds for a total of 40 cycles. A PCR reaction was performed using a CFX96 Touch™ Real-Time PCR Detection System (Bio-Rad, California, USA), and fluorescence intensity was measured at the end of each cycle.

SOD2 mRNA = SOD2 mRNA expression level by real-time PCR in Tert-BHP-treated HEK293 cells; assay type: cell-based; settings: Tert-BHP 300 μM, peptide 500 μM, 18 hours; for effect on SOD2 mRNA expression: FIG. 6; for SOD2 mRNA expression compared to positive control GSH: vs GSH
Procedure: The expression of SOD2 mRNA as another antioxidant factor was determined. The cell line culture, RNA extraction, cDNA synthesis and PCR experiments were performed in the same manner as in Experimental Example 5 above. A detailed description thereof is given below.
as §1, with “and” for “under”
RNA was extracted from the cells treated with 100 types of peptides in (1) using TRIzol (Thermo Fisher Scientific). A GoScript™ Reverse Transcription System (Promega, Wisconsin, USA) was used to synthesize cDNA from the RNA. The cDNA was synthesized by performing annealing with 1 μg RNA, 0.5 μg of an oligo dt primer, 0.5 μg of a random primer, and RT-PCR pre-mixture at 25° C. for 5 minutes, extension at 42° C. for 60 minutes, and inactivation at 70° C. for 15 minutes.
as §2, with “using the” for “using a”

| Substance | effect on expression of Nrf2 mRNA (Nrf2 mRNA) | effect on SOD2 mRNA expression (SOD2 mRNA) | SOD2 mRNA expression compared to positive control GSH (SOD2 mRNA) | Nrf2 mRNA expression compared to positive control GSH (Nrf2 mRNA) |
| --- | --- | --- | --- | --- |
| β-GLU-HIS | no effect |  |  |  |
| γ-GLU-ALA-GLY (Glu-Ala-Gly; not fully specified (residue 1); printed as γ-GLU-ALA-GLY) | improve the expression of Nrf2 mRNA |  |  |  |
| γ-GLU-Abu-GLY ([γGlu]-[Abu]-Gly; also: γ-peptide bond from Glu side chain carboxyl to Abu) | improve the expression of Nrf2 mRNA | increased SOD2 mRNA expression | remarkably excellent |  |
| γ-GLU-CYS(S-Me)-GLY ([γGlu]-Cys(Me)-Gly) | improve the expression of Nrf2 mRNA |  |  |  |
| γ-GLU-GLN-GLN ([γGlu]-Gln-Gln) | improve the expression of Nrf2 mRNA | increased SOD2 mRNA expression |  |  |
| γ-GLU-GLU-GLU ([γGlu]-Glu-Glu) | improve the expression of Nrf2 mRNA |  |  |  |
| γ-GLU-ILE-GLY ([γGlu]-Ile-Gly) | improve the expression of Nrf2 mRNA | increased SOD2 mRNA expression | remarkably excellent; also recorded: statistically significant activity | remarkably excellent effect; also recorded: statistically significant activity |
| γ-GLU-LEU-GLY ([γGlu]-Leu-Gly) | improve the expression of Nrf2 mRNA |  |  |  |
| γ-GLU-ORN | improve the expression of Nrf2 mRNA |  |  | comparable or superior |
| γ-GLU-PRO-GLY ([γGlu]-Pro-Gly) | improve the expression of Nrf2 mRNA | increased SOD2 mRNA expression | remarkably excellent; also recorded: statistically significant activity | remarkably excellent effect; also recorded: statistically significant activity |
| γ-GLU-SER-GLY ([γGlu]-Ser-Gly; also: gamma-glutamyl isopeptide bond (Glu side chain to Ser)) | improve the expression of Nrf2 mRNA |  | remarkably excellent; also recorded: statistically significant activity | statistically significant activity |
| γ-GLU-VAL-ALA ([γGlu]-Val-Ala; also: gamma-glutamyl isopeptide bond (Glu side chain to Val)) | improve the expression of Nrf2 mRNA | increased SOD2 mRNA expression |  |  |
| γ-GLU-VAL-ARG ([γGlu]-Val-Arg; also: gamma-glutamyl isopeptide bond (Glu side chain to Val)) | improve the expression of Nrf2 mRNA | increased SOD2 mRNA expression | remarkably excellent; also recorded: statistically significant activity | remarkably excellent effect; also recorded: statistically significant activity |
| γ-GLU-VAL-ASN ([γGlu]-Val-Asn; also: gamma-glutamyl isopeptide bond (Glu side chain to Val)) | improve the expression of Nrf2 mRNA | increased SOD2 mRNA expression | remarkably excellent; also recorded: statistically significant activity | remarkably excellent effect; also recorded: statistically significant activity |
| γ-GLU-VAL-ASP ([γGlu]-Val-Asp; also: gamma-glutamyl isopeptide bond (Glu side chain to Val)) | improve the expression of Nrf2 mRNA | increased SOD2 mRNA expression | remarkably excellent; also recorded: statistically significant activity | remarkably excellent effect; also recorded: statistically significant activity |
| γ-GLU-VAL-GLU ([γGlu]-Val-Glu; also: gamma-glutamyl isopeptide bond (Glu side chain to Val)) | improve the expression of Nrf2 mRNA | increased SOD2 mRNA expression | remarkably excellent; also recorded: statistically significant activity | remarkably excellent effect; also recorded: statistically significant activity |
| γ-GLU-VAL-GLY ([γGlu]-Val-Gly; also: gamma-glutamyl isopeptide bond (Glu side chain to Val)) | improve the expression of Nrf2 mRNA | increased SOD2 mRNA expression | remarkably excellent |  |
| γ-GLU-VAL-HIS ([γGlu]-Val-His; also: gamma-glutamyl isopeptide bond (Glu side chain to Val)) | improve the expression of Nrf2 mRNA | increased SOD2 mRNA expression | remarkably excellent |  |
| γ-GLU-VAL-LYS ([γGlu]-Val-Lys; also: gamma-glutamyl isopeptide bond (Glu side chain to Val)) | improve the expression of Nrf2 mRNA | increased SOD2 mRNA expression |  |  |
| γ-GLU-VAL-MET ([γGlu]-Val-Met; also: gamma-glutamyl isopeptide bond (Glu side chain to Val)) | improve the expression of Nrf2 mRNA | increased SOD2 mRNA expression | remarkably excellent; also recorded: statistically significant activity | remarkably excellent effect; also recorded: statistically significant activity |
| γ-GLU-VAL-ORN ([γGlu]-Val-[Orn]; also: γ-peptide bond from Glu side chain carboxyl to Val) | improve the expression of Nrf2 mRNA | increased SOD2 mRNA expression |  |  |
| γ-GLU-VAL-PHE ([γGlu]-Val-Phe; also: gamma-glutamyl isopeptide bond (Glu side chain to Val)) | improve the expression of Nrf2 mRNA | increased SOD2 mRNA expression | remarkably excellent; also recorded: statistically significant activity | remarkably excellent effect; also recorded: statistically significant activity |
| γ-GLU-VAL-PRO ([γGlu]-Val-Pro; also: gamma-glutamyl isopeptide bond (Glu side chain to Val)) | improve the expression of Nrf2 mRNA | increased SOD2 mRNA expression |  |  |
| γ-GLU-VAL-VAL ([γGlu]-Val-Val; also: gamma-glutamyl isopeptide bond (Glu side chain to Val)) | improve the expression of Nrf2 mRNA | increased SOD2 mRNA expression |  |  |
